The test system of experiment [1] is human mesenchymal stem cells (hMSCs). Description: chondrogenic nodule formation by hMSCs (high throughput screen). It counts as cell-based. Particulars: for EC50: Homo sapiens, Mesenchymal stem cells, first value of the cell (before the slash), read-out: CHONDROGENIC μM EC50. Here is the method: The primary screening assay was based upon the development of chondrogenic nodules. Chondrocytes can grow in monolayer in vitro, but to more closely mimic their native environment in the joint, the cells are routinely cultured in non-adherent conditions such as in pellet cultures or alginate bead suspensions.
In the actual screen of a library of 22,000 structurally diverse heterocycles, 10^4 primary hMSCs were plated in 384 well plates in serum free DMEM. The cells were treated with 5 μM of each compound and incubated for 4 days. […] To facilitate high throughput imaged-based detection, the chondrogenic nodules were stained with […]. The Nile Red stained nodules were quantified on an Acumen eX3 (high content imaging device) by excitation with a 488 laser for rapid detection of the nodules.
Primary hMSCs grown in a 96 well Greiner plates (50,000/well) were incubated for 4 days in the presence of the 5 uM of each DMSO or 100 nM of PRO1. On day 4, the cells were fixed with 4% formalin for 10 minutes, washed and stained with 1 μg/ml of Rhodamine B for 2 hours at room temperature.

Experiment [2] relates to primary bovine chondrocytes. The experiment can be described thus: inhibition of cytokine-induced nitric oxide release (Greiss reaction). It counts as cell-based. The conditions noted are these: Bos taurus, Chondrocyte; second value of the cell (after the slash); TNFα and oncostatin M, 48 hours; read-out: NO INHIBTION μM IC50. The text has this:
In the screen, hMSCs were used as a surrogate to future targeting of the resident MSCs with the cartilage joint. It was in that setting upon which we identified PRO1. In a joint injury, the primary cell type a therapeutic would have contact with is the chondrocyte. Although cartilage or chondrocyte-targeted screening has not lead to the development of a successful drug modifying osteoarthritis drug (DMOAD) to date, it is believed that a stem cell-based therapeutic would protect and even repair the existing chondrocytes. Therefore, protection of the articular chondrocytes and cartilage from a mature bovine knee was assessed. PRO1 and its analogues were incubated with primary bovine chondrocytes or cartilage explants cultures grown in the presence of TNFα and oncostatin M to mimic the cytokine-induced damage that can occur during OA. In the presence of the cytokine cocktail, in vitro cultured primary chondrocytes released 4-5 fold more nitric oxide (NO) than the untreated chondrocytes (50 μM vs 10 μM) as measured by the Greiss reaction. In cells treated with the cytokine cocktail and PRO1, the small molecule could effectively block the release of NO by up to 70% FIG. 2C). Similarly, in ex vivo treated cartilage explants, cytokine-induced release of glycosaminoglycans (GAG) was reduced by up to 60% by PRO1 (FIG. 2D). Finally, hMSC were grown in pellet culture for 21 days.
(§1) Primary hMSCs were plated (10,000/well) in 384-well plates and cultured for 18 days. The cells were fixed with 4% formalin, permeabilized with triton (0.5%), digested with 0.5 mg/ml collagenase II to unwind the collagen fibrils, and then immunostained with an antibody recognizing type II collagen. DAPI (2 μg/ml) was added to visualize the nuclei. The chondrogenic nodules stained positive for type II collagen but lacked expression of type X collagen and osteocalcin, markers for chondrocyte hypertrophy and osteoblasts, respectively (not shown). 10,000 hMSCs (passages 3-5) were plated in Greiner 384-well low-bottom plates on day 1. The cells were allowed to adhere and stimulated for 48 hrs (days 2-3) with the indicated stimuli in MSC growth media (Millipore). The media was then removed and replaced with serum-free DMEM for an additional 16 days. This media was replenished on days 10 and 15 of the assay. Primary bovine chondrocytes were isolated from the articular surfaces from mature knees. After one week of culture, 8,500 cells were trypsinized and plated in Greiner 384-well white clear-bottom plates in growth media. […] 20 μl of the supernatant was mixed with 20 μl of the Greiss reagent and quantitated at 540 nm as described by the Promega kit instructions. Bovine cartilage explants (cut in circular explants in a 96 well plate) were cultured in the presence of 20 ng/ml TNFα and 10 ng/ml oncostatin M to induce GAG release for 72 hours (FIG. 2D). PRO1 was added at the indicated concentrations during the entire 72 hrs. […] Parafin sections were hydrated, incubated in low pH Antigen unmasking solution (Vector) at 90 C for 10 minutes, permeabilized with 0.1% collagenase II (only for the sections stained with type II collagen) for 10 minutes, blocked with CAS block for 10 minutes and then incubated with the primary antibody (type II collagen, aggrecan or Timp1) antibody (Abcam) overnight at 4 C. The antigens were visualized through standard ABC detection methods and developed with DAB. Representative of 3 sections stained/treatment group (independent experiments).

A further experiment deals with hMSCs. Description: type II collagen expression in hMSC cultures (18 day assay). It counts as cell-based, human. Particulars: Homo sapiens. The method, then:
The chondrogenic differentiation event was initiated quickly even though a fully differentiated chondrocyte phenotype cannot be assessed prior to 14 days in culture. In an 18 day assay, compound treatment was only required for the first 48 hrs and followed by removal and replacement of the media (in the absence of stimuli, FIG. 2B). The promotion of chondrogenic differentiation was not altered or enhanced upon longer treatment with the stimuli (data not shown).
as §1

In general, EC50 refers to the midpoint of the concentration-response curve. One may read the IC50 as the concentration that inhibits the measured activity by half.

As for `O=C(c1ccccc1)c1ccc(NC(=O)c2ccccc2C(=O)O)cc1`, the EC50 in experiment [1] is > 10 µM. For the same molecule, the IC50 in experiment [2] turned out to be 2.5 µM.

As for `CCCOC(=O)c1ccc(NC(=O)c2ccccc2C(=O)O)cc1`, the EC50 in experiment [1] is > 10 µM. Besides, in experiment [2], the IC50 was 0.624 µM.

Consider `COC(=O)c1cc(C(=O)O)ccc1C(=O)Nc1ccc(C(=O)O)cc1`, for which the IC50 in experiment [2] is > 10 µM.

On to `O=C(O)c1ccccc1C(=O)Nc1ccc(S(=O)(=O)N2CCCCC2)cc1`, for which the IC50 in experiment [2] is 2.7 µM.

In the case of `O=C(Nc1ccc(Cc2ccccc2)cc1)c1cc(Cl)cc(Cl)c1C(=O)O`, in experiment [2], the IC50 was > 10 µM.

As for `C=COc1ccc(NC(=O)c2ccccc2C(=O)O)cc1`, the IC50 in experiment [2] is > 10 µM.

On to `C#CCOC(=O)c1ccccc1C(=O)Nc1ccc(Br)cc1`, for which the IC50 in experiment [2] was > 10 µM.

Consider `COC(=O)c1ccccc1C(=O)Nc1ccccc1`, for which the IC50 in experiment [2] is > 10 µM.

On to `O=C(Nc1ccccc1)c1ccccc1C(=O)OCc1ccc([N+](=O)[O-])cc1`, for which, in experiment [2], the IC50 was > 10 µM.

`C=CCOC(=O)c1ccccc1C(=O)Nc1ccc(I)cc1`: the IC50 in experiment [2] was > 10 µM.

Turning to `CC1COCCN1C(=O)c1ccc(NC(=O)c2ccccc2C(=O)O)cc1` (stereo not shown), in experiment [2], the IC50 is 2.64 µM.

`C=C(C)CS(=O)(=O)c1ccc(NC(=O)c2ccccc2C(=O)O)cc1`: the IC50 in experiment [2] stood at 0.925 µM.

In the case of `CCCCCOc1ccc(NC(=O)c2ccccc2C(=O)O)cc1`, the IC50 in experiment [2] is > 10 µM.

With `COC(=O)c1ccccc1C(=O)Nc1ccc(C#N)cc1`, the IC50 in experiment [2] was > 10 µM.

As to `CCc1ccc(NC(=O)c2ccc(C(=O)O)cc2C(=O)O)cc1`, the IC50 in experiment [2] was found to be 0.925 µM.

For the molecule `CC(C)(C)Oc1ccc(NC(=O)c2ccccc2C(=O)O)cc1`, the IC50 in experiment [2] is > 10 µM.

For the molecule `O=C(O)c1cc(Cl)c(Cl)cc1C(=O)Nc1ccc(Cl)cc1`, the IC50 in experiment [2] is > 10 µM.

For the molecule `COc1ccc(NC(=O)c2ccccc2C(=O)Oc2ccc(OC)cc2)cc1`, the half-maximal inhibitory concentration (IC50) in experiment [2] was > 10 µM.

Turning to `O=C(O)c1cc([N+](=O)[O-])ccc1C(=O)Nc1ccc(-c2ccccc2)cc1`, in experiment [2], the IC50 is > 10 µM.

For the molecule `CC(=O)Nc1ccc(NC(=O)c2ccccc2C(=O)O)cc1`, the IC50 in experiment [2] was > 10 µM.

`O=C(O)c1ccccc1C(=O)Nc1ccc(F)cc1`: the EC50 in experiment [1] was > 10 µM. Moreover, in experiment [2], the IC50 amounted to 0.0125 µM.

In the case of `Cc1ccc2nc(-c3ccc(NC(=O)c4ccccc4C(=O)O)cc3)sc2c1`, the IC50 in experiment [2] turned out to be 0.987 µM.

As to `O=C(O)c1ccccc1C(=O)Nc1ccc(-c2csc(-c3ccccc3)n2)cc1`, the IC50 in experiment [2] was > 10 µM.

As to `O=C(O)c1ccc(NC(=O)c2ccccc2C(=O)O)c(C(=O)O)c1`, the IC50 in experiment [2] was > 10 µM.

As for `O=C(O)c1ccc(C(=O)Nc2ccc(Br)cc2)c(C(=O)O)c1`, the IC50 in experiment [2] was > 10 µM.

Regarding `O=C(O)c1ccc(C(=O)Nc2ccc(O)cc2)c(C(=O)O)c1`, the IC50 in experiment [2] is > 10 µM.

As for `Cc1ccc(Oc2ccc(NC(=O)c3ccccc3C(=O)O)cc2)cc1`, the IC50 in experiment [2] is > 10 µM.

As to `O=C(O)c1ccccc1C(=O)Nc1ccc(Oc2ccc3ccccc3c2)cc1`, the IC50 in experiment [2] is > 10 µM.

`COc1ccc(NC(=O)c2cc(Cl)c(Cl)cc2C(=O)O)cc1`: the IC50 in experiment [2] is > 10 µM.

As to `O=C(O)c1ccccc1C(=O)Nc1ccc(OC(F)F)cc1`, the IC50 in experiment [2] was > 10 µM.

For the molecule `O=C(O)c1ccccc1C(=O)Nc1ccc([N+](=O)[O-])cc1`, the IC50 in experiment [2] was > 10 µM.

Take `CCN(CC)c1ccc(NC(=O)c2ccccc2C(=O)O)cc1`: in experiment [2], the IC50 stood at 2.98 µM.

Take `O=C(O)c1ccccc1C(=O)Nc1ccc(S(=O)(=O)NCc2ccccc2)cc1`: the IC50 in experiment [2] was > 10 µM.

Regarding `O=C(O)c1ccccc1C(=O)Nc1ccc(Oc2ccccc2)cc1`, in experiment [2], the IC50 is > 10 µM.

As to `C#CCOC(=O)c1ccccc1C(=O)Nc1ccc(Cl)cc1`, in experiment [2], the IC50 is > 10 µM.

For `O=C(O)c1ccccc1C(=O)Nc1ccc(C(=O)N2CCOCC2)cc1`, the IC50 in experiment [2] is > 10 µM.

On to `CC(C)(C)c1ccc(NC(=O)c2cc(Cl)c(Cl)cc2C(=O)O)cc1`, for which the IC50 in experiment [2] is > 10 µM.

Regarding `CCOc1ccc(NC(=O)c2cccc(O)c2C(=O)O)cc1`, the IC50 in experiment [2] is > 10 µM.

On to `O=C(O)c1ccc(C(=O)Nc2ccc(I)cc2)c(C(=O)O)c1`, for which the IC50 in experiment [2] is > 10 µM.

Take `O=C(O)c1ccccc1C(=O)Nc1ccc(CO)cc1` [AKT-CH2OH, 2-((4-(hydroxymethyl)phenyl)carbamoyl)benzoic acid]: the figures for the EC50 (in the experiment on hMSCs; in experiment [1]) were 8.46 µM and 0.04 µM, respectively. The IC50 in experiment [2] was determined as 0.27 µM.

`[N-]=[N+]=Nc1ccc(C(=O)NCCCNC(=O)c2ccccc2C(=O)NNC(=O)CCOCCC2SCC3NC(=O)NC32)c(O)c1` (stereo not shown) [AKT-azide]: the EC50 with hMSCs was found to be 0.654 µM. The IC50 in experiment [2] turned out to be 0.12 µM.

`COc1ccc(NC(=O)c2ccccc2C(=O)O)cc1` [Compound L2, 2-((4-methoxyphenyl)carbamoyl)benzoic acid]: the EC50 (in the experiment on hMSCs; in experiment [1]) was > 10 µM in each case.

As to `O=C(O)c1ccccc1C(=O)Nc1ccccc1` [LK49], the EC50 in experiment [1] was 5 µM. Also, the IC50 in experiment [2] is > 10 µM.

As for `O=C(O)c1ccc(NC(=O)c2ccccc2C(=O)O)cc1` [LK53], in experiment [1], the EC50 was 0.005 µM. Moreover, in experiment [2], the IC50 came to 0.146 µM.

As to `COC(=O)c1ccccc1C(=O)Nc1ccc(-c2ccccc2)cc1` [LK55b, Methyl 2-([1,1′-biphenyl]-4-ylcarbamoyl)benzoate], the EC50 in experiment [1] turned out to be 0.124 µM. Moreover, the IC50 in experiment [2] stood at 0.234 µM.

For the molecule `O=C(O)c1ccccc1C(=O)Nc1ccc([N+](=O)[O-])cn1` [LK59, 2-((5-nitropyridin-2-yl)carbamoyl)benzoic acid], the EC50 in experiment [1] turned out to be 0.371 µM. In experiment [2], the IC50 turned out to be 0.491 µM.

Consider `Cc1ccc(NC(=O)c2ccccc2C(=O)O)c(C(=O)O)c1` [LK60, 2-(2-carboxybenzamido)-5-methylbenzoic acid], for which, in experiment [1], the EC50 came to 0.014 µM. For the same molecule, the IC50 in experiment [2] is 1.25 µM.

On to `CN1C(=O)c2ccc(NC(=O)c3ccccc3C(=O)O)cc2C1=O` [LK61], for which the EC50 in experiment [1] was determined as 0.052 µM. Besides, the IC50 in experiment [2] stood at 1.69 µM.

On to `O=C(O)c1ccccc1C(=O)Nc1ccc2c(c1)OCO2` [LK62, 2-(benzo[1,3]dioxol-5-ylcarbamoyl)benzoic acid], for which the EC50 in experiment [1] came to 3.36 µM. Besides, the IC50 in experiment [2] is 0.145 µM.

For `O=C(O)c1ccc(NC(=O)c2ccccc2C(=O)O)cc1Cl` [LK63, 4-(2-carboxybenzamido)-2-chlorobenzoic acid], the EC50 in experiment [1] worked out at 0.126 µM. The IC50 in experiment [2] was 0.0298 µM.

For the molecule `O=C(O)c1ccc(CNC(=O)c2ccccc2C(=O)O)cc1` [LK64], the EC50 in experiment [1] turned out to be 0.398 µM. Also, the IC50 in experiment [2] is 0.981 µM.

Consider `COC(=O)NCc1ccc(NC(=O)c2ccccc2C(=O)O)cc1` [PM11], for which, in experiment [1], the “Activity (chondrogenic nodules formed in % of cells)” value is given as “** (chondrogenic nodules formed in at least 25% but less than 50% of cells)”.

Regarding `O=C(O)c1ccccc1C(=O)Nc1ccc(-c2ncc[nH]2)cc1` [PM18], in experiment [1], the “Activity (chondrogenic nodules formed in % of cells)” value is on record as “** (chondrogenic nodules formed in at least 25% but less than 50% of cells)”.

Regarding `CC(=O)c1ccc(NC(=O)c2ccccc2C(=O)O)cc1` [drawing 168], the IC50 in experiment [2] was > 10 µM.

For the origin of these results see patent publication US10166237B2, “Compounds and methods for inducing chondrogenesis” (The Scripps Research Institute, priority 2011, dated 2019).
